According to ChEMBL document CHEMBL4049425, “Fragment-Based, Structure-Enabled Discovery of Novel Pyridones and Pyridone Macrocycles as Potent Bromodomain and Extra-Terminal Domain (BET) Family Bromodomain Inhibitors” (J Med Chem, 2017):

Key:
[1] = molecular target: T1, Bromodomain-containing protein 4 (Homo sapiens, UniProt O60885); assay: Inhibition of BRD4 in human NCI-H1299 cells after 24 hrs by Bright-Glo luciferase reporter gene assay; format: cell-based
MX1 = assay: Antiproliferative activity against human MX1 cells after 72 hrs by Cell Titer Glo assay; format: functional, cell-based; conditions: MX1, 72 h
[2] = Lipophilicity, log D of the compound; format: physicochemical; conditions: octanol/water
[3] = molecular target: T1, Bromodomain-containing protein 4; assay: Inhibition of human N-terminal His6-tagged BRD4 BD1-BD2 (57 to 550 residues) expressed in EScherichia coli BL21(DE3) after 1 hr by Alexa-647-conjugated probe based TR-FRET assay
[4] = Oral bioavailability in mouse at 10 mg/kg; format: ADME, organism-based; conditions: in vivo
Liver [5] = assay: Unbound intrinsic clearance in human liver microsomes; format: ADME, microsome
[6] = Fraction unbound in mouse plasma at 1 uM after 4 hrs by LC-MS/MS analysis; format: ADME, cell-free
Liver [7] = assay: Unbound intrinsic clearance in mouse liver microsomes; format: ADME, microsome
Mus musculus [8] = assay: Fraction absorbed in portal vein of mouse at 3 mg/kg, iv or 10 mg/kg, po; format: ADME, organism-based; conditions: in vivo
Mus musculus [9] = assay: Unbound plasma clearance in mouse at 3 mg/kg, iv or 10 mg/kg, po; format: ADME, organism-based; conditions: in vivo
Liver [10] = assay: Unbound intrinsic clearance in rat liver microsomes; format: ADME, microsome
[11] = Permeability of the compound by PAMPA; format: physicochemical; conditions: read-out: permeability
Mus musculus [12] = assay: Unbound clearance in mouse at 1 mg/kg, iv or 1 mg/kg, po; format: ADME, organism-based; conditions: in vivo
Mus musculus [13] = assay: Fraction absorbed in portal vein of mouse at 1 mg/kg, iv or 1 mg/kg, po; format: ADME, organism-based; conditions: in vivo
Mus musculus [14] = assay: Unbound AUC in mouse at 1 mg/kg, po; format: ADME, organism-based; conditions: in vivo
[15] = Oral bioavailability in mouse at 1 mg/kg; format: ADME, organism-based; conditions: in vivo
Mus musculus [16] = assay: Dose normalized fAUC in mouse at 3 mg/kg, iv or 10 mg/kg, po; format: ADME, organism-based; conditions: in vivo
[17] = Oral bioavailability in rat at 1 mg/kg; format: ADME, organism-based; conditions: in vivo
Rattus norvegicus [18] = assay: Unbound AUC in rat at 1 mg/kg, po; format: ADME, organism-based; conditions: in vivo
Rattus norvegicus [19] = assay: Unbound clearance in rat at 1 mg/kg, iv or 1 mg/kg, po; format: ADME, organism-based; conditions: in vivo
[20] = Fraction unbound in rat plasma; format: ADME, cell-free

Structure (SMILES)	EC50 [1] [nM]	EC50 (MX1) [nM]	logD [2]	Ki [3] [nM]	CL free (Liver [5]) [mL/min/kg]	CL free (Liver [7]) [mL/min/kg]	CL free (Liver [10]) [mL/min/kg]	also measured
CCOc1cc(=O)n(C)cc1-c1cc(NS(=O)(=O)CC)cnc1Oc1ccc(F)cc1F	45	32	2.8 to 4.3	8.7				
COc1cc(=O)n(C)nc1-c1cc(N)ccc1Oc1ccccc1	2900	7200		1700				
CCS(=O)(=O)Nc1ccc(Oc2ccc(F)cc2F)c(-c2cn(C)c(=O)cc2OCCN2CCOCC2)c1	2200	> 3000	2.8 to 4.3	230				
CCS(=O)(=O)Nc1ccc(Oc2ccc(F)cc2F)c(-c2cn(C)c(=O)cc2OCC(C)(C)O)c1	1100	710	2.8 to 4.3	71				
CCOc1cc(=O)n(C)cc1-c1cc(NS(=O)(=O)CC)ccc1Oc1ccc(F)cc1F			2.8 to 4.3		< 71.7	< 100	60	bioavailability [4]: 56%; fraction unbound at 4 h, 1 µM [6]: 0.1; FaFg (Mus musculus [8]): 0.79; CL free (Mus musculus [9]): 267 mL/min/kg
CCS(=O)(=O)Nc1ccc2c(c1)-c1cn(C)c(=O)cc1OCCCCCc1cc(Cl)ccc1O2	35	16	4.3	2.8	517	4670	1830	Papp [11]: 0.89 ×10⁻⁶ cm/s
CCOc1cc(=O)n(C)cc1-c1cc(NS(=O)(=O)CC)ccc1Oc1cccnc1	150	50		17	< 31.7	< 53.3	< 53.3	
CCS(=O)(=O)c1ccc2c(c1)-c1cn(C)c(=O)cc1OCCCCc1ccccc1O2	6.7	10	2.8 to 4.3	1.9	130	867	533	
CCOc1cc(=O)n(C)cc1-c1cc(NS(=O)(=O)CC)ccc1Oc1ccccc1	39	4.7		4.4	67	91.7	3000	
CCS(=O)(=O)c1ccc2c(c1)-c1cn(C)c(=O)cc1OCCCCc1cc(Cl)ccc1O2	16	13	2.8 to 4.3	2	167	883	700	CL free (Mus musculus [12]): 167 mL/min/kg; FaFg (Mus musculus [13]): 0.44; fraction unbound at 4 h, 1 µM [6]: 0.04; fAUC (Mus musculus [14]): 41 ng·h/mL; bioavailability [15]: 41%; Papp [11]: 7.6 ×10⁻⁶ cm/s
CCOc1cc(=O)n(C)cc1-c1cc(NS(=O)(=O)CC)ccc1Oc1ccc(C#N)cc1	55	53		16	< 26.7	< 76.7	< 43.3	
Cn1cc2c(cc1=O)OCCCCc1cc(Cl)ccc1Oc1ccc(CS(C)(=O)=O)cc1-2	18	19	2.8 to 4.3	3.8	267	1670	317	CL free (Mus musculus [12]): 400 mL/min/kg; FaFg (Mus musculus [13]): 0.79; fraction unbound at 4 h, 1 µM [6]: 0.03; fAUC (Mus musculus [14]): 29 ng·h/mL; bioavailability [15]: 68%; Papp [11]: 9.2 ×10⁻⁶ cm/s
CCOC(=O)Nc1ccc(Oc2ccccc2)c(-c2nn(C)c(=O)cc2OC)c1	4900	4500		1100				
CNc1cc(=O)n(C)nc1-c1ccccc1				160000				
CCNC(=O)Nc1ccc(Oc2ccccc2)c(-c2nn(C)c(=O)cc2OC)c1	2800	13000		1900				
CCOc1cc(=O)n(C)cc1-c1cc(CS(C)(=O)=O)ccc1Oc1ccc(F)cc1F	230	140	2.8 to 4.3	120				
CCNc1cc(=O)n(C)cc1-c1cc(NS(=O)(=O)CC)ccc1Oc1ccc(F)cc1F	140	30	2.8 to 4.3	14				
COc1cc(=O)n(C)cc1-c1ccccc1Oc1ccccc1	2800	1500		450				

Structure (SMILES)	EC50 [1] [nM]	EC50 (MX1) [nM]	logD [2]	Ki [3] [nM]	CL free (Liver [5]) [mL/min/kg]	CL free (Liver [7]) [mL/min/kg]	CL free (Liver [10]) [mL/min/kg]	also measured
CCOc1cc(=O)n(C)cc1-c1cc(NS(=O)(=O)CC)ccc1Oc1ccc(Cl)cc1	27	18		2.6	< 50	< 148	88.3	
CCS(=O)(=O)Nc1ccc(Oc2ccccc2)c(-c2cn(C)c(=O)cc2OC)c1	67	16		8.2				
CCS(=O)(=O)Nc1ccc(Oc2ccc(F)cc2F)c(-c2cn(C)c(=O)cc2OCC(C)C)c1	180	140	2.8 to 4.3	7				
CCOc1cc(=O)n(C)cc1-c1cc(NS(=O)(=O)CC)ccc1Oc1ccc(F)cc1	69	16		5.6	< 33	< 98.3	167	
COC(=O)C[C@@H]1N=C(c2ccc(Cl)cc2)c2c(sc(C)c2C)-n2c(C)nnc21				16.7				
CCS(=O)(=O)c1ccc2c(c1)-c1cn(C)c(=O)cc1OCCc1ccccc1O2	630	710	2.8 to 4.3	100	100	333	167	
CCS(=O)(=O)Nc1ccc(Oc2ccc(F)cc2F)c(-c2cn(C)c(=O)cc2OCC(F)(F)F)c1	100	120	2.8 to 4.3	22				
COc1cc(=O)n(C)nc1-c1cc(NS(C)(=O)=O)ccc1Oc1ccccc1	230	730		140				
CCOc1cc(=O)n(C)cc1-c1cc(NS(=O)(=O)CC)ccc1Oc1ccc(OC(F)(F)F)cc1	210	62		5.5	95	1500	3000	
CCS(=O)(=O)c1ccc2c(c1)-c1cn(C)c(=O)cc1OCCCc1ccccc1O2	26	6.9	2.8 to 4.3	7.3	148	900		
CCS(=O)(=O)Nc1ccc2c(c1)-c1cn(C)c(=O)cc1OCCCCc1cc(F)cc(F)c1O2			2.8 to 4.3		67	700	317	fraction unbound at 4 h, 1 µM [6]: 0.03; fAUC (Mus musculus [14]): 8 ng·h/mL; Papp [11]: 6.8 ×10⁻⁶ cm/s
CCOc1cc(=O)n(C)cc1-c1cc(S(=O)(=O)CC)ccc1Oc1ccc(F)cc1F	66	40	2.8 to 4.3		< 33	200	103	bioavailability [4]: 41%; fraction unbound at 4 h, 1 µM [6]: 0.1; FaFg (Mus musculus [8]): 0.52; CL free (Mus musculus [9]): 167 mL/min/kg; fAUC/dose (Mus musculus [16]): 0.039 µg·h/mL per mg/kg
CCS(=O)(=O)Nc1cnc2c(c1)-c1cn(C)c(=O)cc1OCCCCc1cc(Cl)ccc1O2	9.3	5.7	2.8 to 4.3	3.4	63.3	1030	153	bioavailability [17]: 19%; fAUC (Rattus norvegicus [18]): 5 ng·h/mL; CL free (Mus musculus [12]): 102 mL/min/kg; CL free (Rattus norvegicus [19]): 833 mL/min/kg; FaFg (Mus musculus [13]): 0.76; fraction unbound at 4 h, 1 µM [6]: 0.06; fAUC (Mus musculus [14]): 120 ng·h/mL; fraction unbound [20]: 0.12; bioavailability [15]: 70%; Papp [11]: 7.2 ×10⁻⁶ cm/s
CCOc1cc(=O)n(C)cc1-c1cc(NS(=O)(=O)CC)ccc1OC1CCC(F)(F)CC1	390	250		110	35	167	183	
CCS(=O)(=O)Nc1ccc(Oc2ccc(F)cc2F)c(-c2cn(C)c(=O)cc2OC2COC2)c1	48	25	2.8 to 4.3	9	76.7	150	< 41.7	bioavailability [4]: 20%; fraction unbound at 4 h, 1 µM [6]: 0.2; FaFg (Mus musculus [8]): 0.3; CL free (Mus musculus [9]): 143 mL/min/kg; fAUC/dose (Mus musculus [16]): 0.026 µg·h/mL per mg/kg
COc1cc(=O)n(C)cc1-c1cc(NS(C)(=O)=O)ccc1Oc1ccccc1	77	130		58				
COc1cc(=O)n(C)nc1-c1cc(NC(C)=O)ccc1Oc1ccccc1	370	1300		900				
CCS(=O)(=O)Nc1cnc2c(c1)-c1cn(C)c(=O)cc1OCCCCc1cc(F)cc(F)c1O2	6.4	4.2	2.8 to 4.3	0.8	< 28.3	250	75	CL free (Mus musculus [12]): 317 mL/min/kg; FaFg (Mus musculus [13]): 0.49; fraction unbound at 4 h, 1 µM [6]: 0.12; fAUC (Mus musculus [14]): 15 ng·h/mL; bioavailability [15]: 27%; Papp [11]: 9 ×10⁻⁶ cm/s
